Drawing on ChEMBL document CHEMBL3997827, “Synthesis of novel spiro[pyrazolo[4,3-d]pyrimidinones and spiro[benzo[4,5]thieno[2,3-d]pyrimidine-2,3'-indoline]-2',4(3H)-diones and their evaluation for anticancer activity” (Bioorg Med Chem Lett, 2017), this text covers IC50 and inhibition for 13 compounds.

Experiment [1] has as its system K562. As to the kind of experiment: Cytotoxicity against human K562 cells assessed as decrease in cell viability after 24 hrs by MTT assay. The format is functional, cell-based. The conditions noted are these: K562, 24 h. Background: Tetrazolium assays rely on reduction of a dye to a coloured formazan, in cell work by metabolically active cells.
For experiment [2], the system named is MDA-MB-231. The experiment can be described thus: Cytotoxicity against human MDA-MB-231 cells assessed as decrease in cell viability after 24 hrs by MTT assay. The format is functional, cell-based. The following applies: MDA-MB-231, 24 h.
The subject of experiment [3] is COLO 205. As to the kind of experiment: Cytotoxicity against human COLO205 cells assessed as decrease in cell viability after 24 hrs by MTT assay. The following applies: COLO 205, 24 h. The format is functional, cell-based.
The target in experiment [4] is T1, NAD-dependent protein deacetylase sirtuin-1 (Homo sapiens) (UniProt Q96EB6).
T1 sequence (whole entry): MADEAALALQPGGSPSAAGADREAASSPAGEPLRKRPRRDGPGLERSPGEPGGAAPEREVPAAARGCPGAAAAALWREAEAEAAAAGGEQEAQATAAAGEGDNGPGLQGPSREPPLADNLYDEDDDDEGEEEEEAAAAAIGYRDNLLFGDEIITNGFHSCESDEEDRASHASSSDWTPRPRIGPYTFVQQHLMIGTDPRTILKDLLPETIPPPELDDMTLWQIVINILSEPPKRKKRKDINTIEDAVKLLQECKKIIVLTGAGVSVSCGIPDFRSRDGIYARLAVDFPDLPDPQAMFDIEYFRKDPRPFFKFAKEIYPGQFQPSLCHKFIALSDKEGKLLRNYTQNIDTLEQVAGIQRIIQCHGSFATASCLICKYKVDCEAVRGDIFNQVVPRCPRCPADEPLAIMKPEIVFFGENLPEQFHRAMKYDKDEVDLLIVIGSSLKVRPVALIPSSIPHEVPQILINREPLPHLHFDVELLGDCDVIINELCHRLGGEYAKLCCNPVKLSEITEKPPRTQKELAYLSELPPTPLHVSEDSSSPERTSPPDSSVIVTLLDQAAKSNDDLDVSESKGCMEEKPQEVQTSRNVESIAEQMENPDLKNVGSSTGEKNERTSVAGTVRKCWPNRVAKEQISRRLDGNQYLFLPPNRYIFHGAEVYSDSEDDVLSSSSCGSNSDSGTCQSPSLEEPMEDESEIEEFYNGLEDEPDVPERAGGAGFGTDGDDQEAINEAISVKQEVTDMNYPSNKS
The experiment can be described thus: Inhibition of human Sirt1 expressed in bacteria at 10 uM using fluorophorelabeled substrate peptide after 15 mins by fluorescence assay relative to control.

Consider `CCCc1nn(C)c2c1NC1(CCCC1)NC2=O`, for which the values for the IC50 in experiment [1], in experiment [2] and in experiment [3] were 14 µM, 34 µM and 17 µM, respectively.

In the case of `CCCc1nn(C)c2c1NC1(CCCCCC1)NC2=O`, the IC50 was found to be 21 µM in experiment [1], 52 µM in experiment [2] and 26 µM in experiment [3].

On to `CCCc1nn(C)c2c1NC1(CCC(C)(C)CC1)NC2=O`, for which the half-maximal inhibitory concentration (IC50) in experiment [1] was found to be 19 µM; in experiment [2], 45 µM; in experiment [3] it was 24 µM.

For `CCCCCCCCCCCCN1C(=O)C2(NC(=O)c3c(sc4c3CCCC4)N2)c2ccccc21` (centres undefined), the 50% inhibitory concentration (IC50) in experiment [1] was 27 µM; in experiment [2], 29 µM; in experiment [3], 16 µM.

Consider `CC(C)N1C(=O)C2(NC(=O)c3c(sc4c3CCCC4)N2)c2ccccc21` (centres undefined), for which the half-inhibitory concentration (IC50) stood at 12 µM in experiment [1], 22 µM in experiment [2] and 6 µM in experiment [3]. This compound came in with an inhibition in experiment [4] of 46 to 69%.

For `CCCc1nn(C)c2c1NC1(NC2=O)C(=O)N(C(=O)OC(C)(C)C)c2ccccc21` (centres undefined), the 50% inhibitory concentration (IC50) is 15 µM in experiment [1], 28 µM in experiment [2] and 10 µM in experiment [3]. The compound also displayed an inhibition in experiment [4] of 46 to 69%.

On to `CCCCCCCCCCCCCCCCN1C(=O)C2(NC(=O)c3c(sc4c3CCCC4)N2)c2ccccc21` (centres undefined), for which the IC50 was determined as 19 µM in experiment [1], 34 µM in experiment [2] and 18 µM in experiment [3]. In experiment [4], this compound returned an inhibition of 46 to 69%.

For the compound `CCN1C(=O)C2(NC(=O)c3c(sc4c3CCCC4)N2)c2ccccc21` (centres undefined), the concentration for half-maximal inhibition (IC50) in experiment [1] was found to be 21 µM; in experiment [2], 34 µM; in experiment [3] it was 12 µM.

Take `CCCc1nn(C)c2c1NC1(CCCCC1)NC2=O`: the IC50 in experiment [1] was found to be 16 µM; in experiment [2], 35 µM; in experiment [3], 18 µM.

On to `CCCc1nn(C)c2c1NC1(NC2=O)C(=O)N(C)c2ccccc21` (centres undefined), for which the half-inhibitory concentration (IC50) in experiment [1] turned out to be 20 µM; in experiment [2] it was 34 µM; in experiment [3] it was 15 µM.

On to `CCCc1nn(C)c2c1NC1(NC2=O)C(=O)N(CC)c2ccccc21` (centres undefined), for which the IC50 in experiment [1] was determined as 22 µM; in experiment [2], 41 µM; in experiment [3] it was 16 µM.

With `CN1C(=O)C2(NC(=O)c3c(sc4c3CCCC4)N2)c2ccccc21` (centres undefined), the half-maximal inhibitory concentration (IC50) in experiment [1] stood at 16 µM; in experiment [2] it was 39 µM; in experiment [3], 9 µM. The same compound registered an inhibition in experiment [4] of 46 to 69%.

Consider `CCCc1nn(C)c2c1NC1(NC2=O)C(=O)N(Cc2ccccc2)c2ccccc21` (centres undefined), for which the values for the IC50 in experiment [1], in experiment [2] and in experiment [3] were 16 µM, 38 µM and 15 µM, respectively. The compound also returned an inhibition in experiment [4] of 46 to 69%.

The IC50 is the concentration at which inhibition is half-maximal. In general, inhibition refers to the share of the control response that was lost under treatment. Low values mean a weak effect, high ones a strong effect.
